# Reference: ChEMBL document CHEMBL1201862, “PubChem BioAssay data set” (2004)
#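 The compound was tested at five concentrations on cells cultured in 96-well plates, with a 48-hour exposure period. GI50 is the concentration that inhibits growth by half.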 Calls of active or inactive are those of the source. Cut-off read from the data, not from the text of the source: active = GI50 up to about 1.1 µM and inactive = higher.
# Columns and labels:
# Test in all cases: NCI tumour cell line growth inhibition, 48 h
# [1] = system: A498
# [2] = system: A549
# [3] = system: CAKI-1
# [4] = system: COLO 205
# [5] = system: DU-145
# [6] = system: HL-60
# [7] = system: HOP-92
# [8] = system: HT-29
# [9] = system: Hs-578T
# [10] = system: IGROV-1
# [11] = system: MDA-MB-231
# [12] = system: MDA-N
# [13] = system: Malme-3M
# [14] = system: NCI-H23
# [15] = system: RXF 393
# [16] = system: SF-539
# [17] = system: SK-MEL-5
# [18] = system: SN12C
# [19] = system: SNB-19
# [20] = system: TK-10
SMILES,GI50 [1],GI50 [2],GI50 [3],GI50 [4],GI50 [5],GI50 [6],GI50 [7],GI50 [8],GI50 [9],GI50 [10],GI50 [11],GI50 [12],GI50 [13],GI50 [14],GI50 [15],GI50 [16],GI50 [17],GI50 [18],GI50 [19],GI50 [20]
COC1=C(Br)C(O)C2(C=C1Br)CC(C(=O)NCCCCNC(=O)C1=NOC3(C=C(Br)C(OC)=C(Br)C3O)C1)=NO2 (stereo not given),31 µM (inactive),30.6 µM (inactive),63.4 µM (inactive),15.8 µM (inactive),31.6 µM (inactive),20.6 µM (inactive),26.2 µM (inactive),15.9 µM (inactive),12.4 µM (inactive),11.7 µM (inactive),22.3 µM (inactive),16.7 µM (inactive),16.4 µM (inactive),40.5 µM (inactive),24.8 µM (inactive),19.8 µM (inactive),11.9 µM (inactive),25.6 µM (inactive),37.3 µM (inactive),65.3 µM (inactive)
COC(=O)C1=C(C=O)C2C=CC1C2 (stereo not given),> 100 µM (inactive),> 100 µM (inactive),44.2 µM (inactive),46.3 µM (inactive),> 100 µM (inactive),21.3 µM (inactive),> 100 µM (inactive),> 66.2 µM (inactive),> 100 µM (inactive),> 100 µM (inactive),> 100 µM (inactive),> 100 µM (inactive),56.9 µM (inactive),> 97.5 µM (inactive),81.5 µM (inactive),> 100 µM (inactive),> 100 µM (inactive),> 71.8 µM (inactive),> 100 µM (inactive),53.8 µM (inactive)
COc1ccc(/N=N/c2ccc3oc(=O)c(C(=O)Nc4ccccc4)cc3c2)cc1,> 10 µM (inactive),> 10 µM (inactive),> 10 µM (inactive),> 10 µM (inactive),> 6.85 µM (inactive),3.16 µM (inactive),> 10 µM (inactive),> 10 µM (inactive),> 10 µM (inactive),> 10 µM (inactive),> 10 µM (inactive),> 10 µM (inactive),> 10 µM (inactive),> 10 µM (inactive),> 10 µM (inactive),> 9.31 µM (inactive),> 10 µM (inactive),> 10 µM (inactive),> 10 µM (inactive),> 10 µM (inactive)
O=C(CC(O)(C(F)(F)F)C(F)(F)F)c1cc(CC(=O)C(O)(C(F)(F)F)C(F)(F)F)cc(CC(=O)C(O)(C(F)(F)F)C(F)(F)F)c1,1.88 µM (inactive),1.84 µM (inactive),1.75 µM (inactive),1.61 µM (inactive),1.97 µM (inactive),> 10 µM (inactive),0.984 µM (active),1.4 µM (inactive),2.05 µM (inactive),1.65 µM (inactive),1.64 µM (inactive),2.64 µM (inactive),2.01 µM (inactive),0.867 µM (active),1.47 µM (inactive),2.05 µM (inactive),1.57 µM (inactive),1.41 µM (inactive),2.67 µM (inactive),2.4 µM (inactive)
CS(=O)(=O)OCCN(CCOS(C)(=O)=O)c1ccc(/C=N/c2ccc(-c3csc(Cc4ccccc4)n3)cc2)c(Cl)c1,0.102 µM (active),11.6 µM (inactive),1.23 µM (inactive),15.1 µM (inactive),30.4 µM (inactive),11.1 µM (inactive),0.596 µM (active),21.9 µM (inactive),28.4 µM (inactive),18.2 µM (inactive),25 µM (inactive),21.6 µM (inactive),37.1 µM (inactive),23.5 µM (inactive),33.7 µM (inactive),22.8 µM (inactive),16.4 µM (inactive),28.8 µM (inactive),> 45.3 µM (inactive),3.93 µM (inactive)
NS(=O)(=O)c1cc(Cl)c(NC(=S)NC(=O)Nc2ccc(Cl)c(Cl)c2)c(Cl)c1,26.7 µM (inactive),30.5 µM (inactive),76.4 µM (inactive),18 µM (inactive),67 µM (inactive),21.8 µM (inactive),55.7 µM (inactive),46.8 µM (inactive),> 100 µM (inactive),81.1 µM (inactive),50.1 µM (inactive),33.6 µM (inactive),68.1 µM (inactive),31.6 µM (inactive),41.3 µM (inactive),28.6 µM (inactive),18.3 µM (inactive),36.8 µM (inactive),42.9 µM (inactive),47.4 µM (inactive)
CC(=O)C(I(OS(=O)(=O)c1ccc(C)cc1)c1ccccc1)=P(c1ccccc1)(c1ccccc1)c1ccccc1,> 100 µM (inactive),24.4 µM (inactive),> 100 µM (inactive),17.1 µM (inactive),18.8 µM (inactive),30.3 µM (inactive),10.5 µM (inactive),18.9 µM (inactive),23 µM (inactive),35.6 µM (inactive),23.4 µM (inactive),15 µM (inactive),14.8 µM (inactive),18.1 µM (inactive),42.1 µM (inactive),18.2 µM (inactive),22.1 µM (inactive),15.9 µM (inactive),38.5 µM (inactive),84.9 µM (inactive)
C[C@H]1[C@H](C)CC[C@]2(C(=O)OC3OC(CO)C(O)C(O)C3O)CC[C@]3(C)C(=CC[C@@H]4[C@@]5(C)C[C@@H](O)[C@@H]6OC(=O)c7cc(O)c(O)c(O)c7-c7c(cc(O)c(O)c7O)C(=O)OC[C@@]6(CO)[C@@H]5CC[C@]43C)[C@H]12 (stereo not given in full),> 100 µM (inactive),> 100 µM (inactive),47.8 µM (inactive),> 100 µM (inactive),> 100 µM (inactive),39.2 µM (inactive),> 92.5 µM (inactive),25.4 µM (inactive),> 100 µM (inactive),> 100 µM (inactive),19.5 µM (inactive),21.5 µM (inactive),> 95.5 µM (inactive),> 100 µM (inactive),> 100 µM (inactive),> 100 µM (inactive),> 84.9 µM (inactive),59.7 µM (inactive),> 100 µM (inactive),> 100 µM (inactive)
